Data reported in publication PMC5077204, “Accumulation of Peptidoglycan O-Acetylation Leads to Altered Cell Wall Biochemistry and Negatively Impacts Pathogenesis Factors of Campylobacter jejuni” (The Journal of Biological Chemistry, 2016).

Biological target: T1, Ape1-His6 (Campylobacter jejuni, UniProt A0A0H3PJ52)
T1 construct: gene CJJ81176_0638; predicted 21-residue signal peptide removed; C-terminal His6 tag (pET28a(+)), expressed in E. coli BL21(DE3)
Experiment: absorbance at […] nm, p-nitrophenol release
Assay type: biochemical
Conditions: 2 mM pNPAc; 50 mM sodium phosphate pH 6.5; room temperature

T1 sequence (A0A0H3PJ52 entry or part of it): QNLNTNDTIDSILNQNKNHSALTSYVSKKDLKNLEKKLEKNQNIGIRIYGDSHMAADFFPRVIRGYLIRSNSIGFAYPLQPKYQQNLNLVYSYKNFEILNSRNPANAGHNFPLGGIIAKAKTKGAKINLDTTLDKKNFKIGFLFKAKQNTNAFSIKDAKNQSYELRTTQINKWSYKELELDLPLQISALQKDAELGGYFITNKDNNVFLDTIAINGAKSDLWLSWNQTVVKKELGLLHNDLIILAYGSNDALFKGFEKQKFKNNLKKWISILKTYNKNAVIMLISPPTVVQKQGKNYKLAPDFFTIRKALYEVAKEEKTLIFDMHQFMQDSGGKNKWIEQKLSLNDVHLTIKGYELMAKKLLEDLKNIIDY

SMILES: CC(=O)Oc1ccc([N+](=O)[O-])cc1 [p-nitrophenyl acetate]
- absorbance at 405 nm, p-nitrophenol release: The specific activity of purified Ape1 was determined using p-nitrophenylacetate (pNPAc)
